Source: ChEMBL document CHEMBL5518204, “Discovery and Proof of Concept of Potent Dual Polθ/PARP Inhibitors for Efficient Treatment of Homologous Recombination-Deficient Tumors” (J Med Chem, 2024)
Activity calls are given as the source filed them. No cut-off for these calls is given here.

Experiments:
[1] = molecular target: T1, Poly [ADP-ribose] polymerase 1 (Homo sapiens, UniProt P09874); settings: dose 10.0 nM, time 90.0 min
DNA polymerase theta [2] = molecular target: T2, DNA polymerase theta (Homo sapiens, UniProt O75417); test: Inhibition of DNA polymerase theta (unknown origin) ATPase activity incubated for 60 mins in presence of ATP by ADP-glo kinase assay
T2 sequence (O75417 whole entry): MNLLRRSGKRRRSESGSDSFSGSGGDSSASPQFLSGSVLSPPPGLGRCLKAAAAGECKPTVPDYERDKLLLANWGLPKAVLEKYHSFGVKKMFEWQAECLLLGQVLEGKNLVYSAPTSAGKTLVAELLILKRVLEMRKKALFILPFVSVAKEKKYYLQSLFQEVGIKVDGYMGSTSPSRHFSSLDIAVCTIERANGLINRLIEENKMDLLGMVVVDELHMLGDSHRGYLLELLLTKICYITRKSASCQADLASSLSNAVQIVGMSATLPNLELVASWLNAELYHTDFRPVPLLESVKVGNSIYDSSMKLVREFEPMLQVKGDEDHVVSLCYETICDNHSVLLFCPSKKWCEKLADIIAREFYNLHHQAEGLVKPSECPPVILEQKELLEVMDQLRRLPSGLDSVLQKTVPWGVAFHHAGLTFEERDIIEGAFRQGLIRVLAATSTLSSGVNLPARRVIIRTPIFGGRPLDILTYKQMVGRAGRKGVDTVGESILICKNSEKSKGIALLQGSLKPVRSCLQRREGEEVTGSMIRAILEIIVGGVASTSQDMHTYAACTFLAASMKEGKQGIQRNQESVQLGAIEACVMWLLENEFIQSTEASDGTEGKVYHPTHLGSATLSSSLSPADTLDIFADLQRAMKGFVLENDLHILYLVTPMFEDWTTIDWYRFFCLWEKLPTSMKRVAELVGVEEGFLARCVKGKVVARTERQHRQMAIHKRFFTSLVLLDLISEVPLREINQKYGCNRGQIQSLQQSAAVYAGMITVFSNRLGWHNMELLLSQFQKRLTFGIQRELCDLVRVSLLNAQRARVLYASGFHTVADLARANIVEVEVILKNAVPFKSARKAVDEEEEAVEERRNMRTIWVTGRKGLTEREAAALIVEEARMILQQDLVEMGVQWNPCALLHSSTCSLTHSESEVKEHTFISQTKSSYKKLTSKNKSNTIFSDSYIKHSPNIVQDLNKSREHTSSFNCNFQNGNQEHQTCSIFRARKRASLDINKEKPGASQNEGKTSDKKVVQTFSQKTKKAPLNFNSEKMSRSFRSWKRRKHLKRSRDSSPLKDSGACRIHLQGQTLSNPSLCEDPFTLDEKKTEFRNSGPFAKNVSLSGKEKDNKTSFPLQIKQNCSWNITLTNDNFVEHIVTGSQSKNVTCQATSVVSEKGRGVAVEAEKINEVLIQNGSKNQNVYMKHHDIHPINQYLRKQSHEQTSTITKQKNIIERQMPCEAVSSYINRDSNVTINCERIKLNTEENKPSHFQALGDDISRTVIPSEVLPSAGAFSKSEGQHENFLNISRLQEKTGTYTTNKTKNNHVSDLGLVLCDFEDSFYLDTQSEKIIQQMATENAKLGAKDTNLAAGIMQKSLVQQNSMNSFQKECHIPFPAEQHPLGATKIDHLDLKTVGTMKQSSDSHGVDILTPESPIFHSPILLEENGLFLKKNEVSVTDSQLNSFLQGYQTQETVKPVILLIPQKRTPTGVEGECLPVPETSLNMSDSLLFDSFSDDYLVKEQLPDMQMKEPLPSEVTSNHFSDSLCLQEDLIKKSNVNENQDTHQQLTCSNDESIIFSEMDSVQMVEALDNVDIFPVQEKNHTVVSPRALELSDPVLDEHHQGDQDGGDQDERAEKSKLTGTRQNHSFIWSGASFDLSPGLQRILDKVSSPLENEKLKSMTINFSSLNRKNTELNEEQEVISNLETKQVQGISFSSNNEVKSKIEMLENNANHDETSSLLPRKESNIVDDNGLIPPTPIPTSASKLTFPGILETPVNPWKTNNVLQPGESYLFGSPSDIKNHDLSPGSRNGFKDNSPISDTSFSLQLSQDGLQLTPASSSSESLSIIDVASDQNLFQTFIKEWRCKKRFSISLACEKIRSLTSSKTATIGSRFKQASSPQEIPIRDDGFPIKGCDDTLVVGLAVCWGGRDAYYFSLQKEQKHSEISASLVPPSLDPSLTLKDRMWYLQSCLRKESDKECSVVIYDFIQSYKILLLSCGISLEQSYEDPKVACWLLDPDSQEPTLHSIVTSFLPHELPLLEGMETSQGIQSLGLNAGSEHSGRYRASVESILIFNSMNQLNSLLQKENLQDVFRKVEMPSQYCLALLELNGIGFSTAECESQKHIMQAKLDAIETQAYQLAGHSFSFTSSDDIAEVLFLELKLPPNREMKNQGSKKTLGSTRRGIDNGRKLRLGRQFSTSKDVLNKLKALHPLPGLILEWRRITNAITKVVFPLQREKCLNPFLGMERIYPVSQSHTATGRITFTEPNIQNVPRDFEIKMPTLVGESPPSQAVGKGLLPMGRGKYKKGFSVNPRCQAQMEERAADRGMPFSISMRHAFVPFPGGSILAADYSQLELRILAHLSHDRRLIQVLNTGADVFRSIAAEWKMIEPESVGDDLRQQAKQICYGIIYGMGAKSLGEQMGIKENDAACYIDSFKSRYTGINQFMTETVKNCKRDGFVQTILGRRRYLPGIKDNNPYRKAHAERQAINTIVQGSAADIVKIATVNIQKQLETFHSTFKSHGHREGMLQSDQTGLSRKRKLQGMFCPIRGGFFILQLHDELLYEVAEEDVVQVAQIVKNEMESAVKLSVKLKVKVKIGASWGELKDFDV

MCF-10A = test: (§1) Antiproliferative activity against human MCF-10A cells assessed as inhibition of cell proliferation incubated for 5 days by MTT assay; format: toxicity, cell-based; settings: mcf-10a
HCC1937 = test: Antiproliferative activity against BRCA1-deficient human HCC1937 cells assessed as inhibition of cell proliferation incubated for 5 days by MTT assay; format: functional, cell-based; settings: HCC1937, 120 h
SK-OV-3 = test: Antiproliferative activity against BRCA-proficient human SK-OV-3 cells assessed as inhibition of cell proliferation incubated for 5 days by MTT assay; format: functional, cell-based; settings: SK-OV-3, 120 h
HCT-116 = test: Antiproliferative activity against BRCA2-deficient human HCT-116 cells assessed as inhibition of cell proliferation incubated for 5 days by MTT assay; format: functional, cell-based; settings: HCT-116, 120 h
[3] = molecular target: T1, Poly [ADP-ribose] polymerase 1; test: Inhibition of human PARP1 incubated for 90 mins by colorimetric assay
MDA-MB-436 [4] = test: Antiproliferative activity against BRCA1-deficient human MDA-MB-436 cells assessed as inhibition of cell proliferation incubated for 5 days by MTT assay; format: functional, cell-based; settings: MDA-MB-436, 120 h
DNA polymerase theta [5] = molecular target: T2, DNA polymerase theta; test: Inhibition of human DNA polymerase theta (67 to 970 residues) ATPase activity expressed in Sf9 insect cells incubated for 40 mins by ADP-glo assay
[6] = as §1; format: toxicity, cell-based; settings: human, MCF-10A cells
SW48 = test: Antiproliferative activity against BRCA2-deficient human SW48 cells assessed as inhibition of cell proliferation incubated for 5 days by MTT assay; format: functional, cell-based; settings: SW48, 120 h
DNA polymerase theta [7] = molecular target: T2, DNA polymerase theta; test: Inhibition of DNA polymerase theta (unknown origin) (1 to 899 residues) ATPase activity by NADH oxidation-coupled enzymatic assay
MDA-MB-231 [8] = test: Induction of apoptosis in human MDA-MB-231 cells at 2 to 10 uM incubated for 3 days in presence of olaparib by Annexin V-APC/7-AAD based flow cytometry analysis; format: functional; settings: dose 2-10 µM, time 3 day
MDA-MB-231 [9] = test: Antitumor activity against human MDA-MB-231 cells xenografted in BALB/c mouse assessed as tumor growth inhibition at 40 mg/kg, ip administered for 21 days in presence of olaparib; format: functional; settings: MDA-MB-231, 504 h, time 21 day, read-out: TGI
MDA-MB-231 [10] = test: Antitumor activity against human MDA-MB-231 cells xenografted in BALB/c mouse assessed as tumor growth inhibition at 40 mg/kg, ip administered for 21 days; format: functional; settings: MDA-MB-231, 504 h, time 21 day, read-out: TGI
MDA-MB-231 [11] = test: Induction of DNA damage in human MDA-MB-231 cells assessed as increase in tail intensity at 2 to 10 uM incubated for 3 days in presence of olaparib by florescence microscopic analysis; format: functional, cell-based; settings: dose 2-10 µM, time 3.0 day
MDA-MB-231 [12] = test: Induction of cell cycle arrest in human MDA-MB-231 cells assessed as accumulation of cells at G2/M phase at 10 uM incubated for 3 days by PI staining based flow cytometric analysis; format: functional; settings: time 3.0 day
MDA-MB-436 [13] = test: Inhibition of colony formation in human MDA-MB-436 cells at 10 uM incubated for 9 days by crystal violet staining based analysis; format: functional, cell-based; settings: time 9.0 day
MDA-MB-231 [14] = test: Induction of DNA damage in human MDA-MB-231 cells assessed as increase in gammaH2AX foci at 10 uM incubated for 3 days by DAPI staining based confocal laser scanning microscopic analysis; format: functional, cell-based; settings: time 3.0 day
MDA-MB-231 [15] = test: Antiproliferative activity against 53BP1-knockdown human MDA-MB-231 cells incubated for 24 hrs by MTT assay; format: functional, cell-based
MDA-MB-231 [16] = test: Induction of cell cycle arrest in human MDA-MB-231 cells assessed as accumulation of cells at G2/M phase at 10 uM incubated for 3 days in presence of olaparib by PI staining based flow cytometric analysis; format: functional; settings: time 3.0 day
MDA-MB-436 [17] = test: Inhibition of colony formation in human MDA-MB-436 cells at 2 to 10 uM incubated for 9 days in presence of olaparib by crystal violet staining based analysis; format: functional, cell-based; settings: dose 2-10 µM, time 9.0 day
MDA-MB-231 [18] = test: Induction of apoptosis in human MDA-MB-231 cells at 10 uM incubated for 3 days by Annexin V-APC/7-AAD based flow cytometry analysis; format: functional; settings: time 3 day
MDA-MB-231 [19] = test: Induction of DNA damage in human MDA-MB-231 cells assessed as increase in tail intensity at 10 uM incubated for 3 days by florescence microscopic analysis; format: functional, cell-based; settings: time 3.0 day
MDA-MB-231 [20] = test: Induction of DNA damage in human MDA-MB-231 cells assessed as increase in gammaH2AX foci at 2 to 10 uM incubated for 3 days in presence of olaparib by DAPI staining based confocal laser scanning microscopic analysis; format: functional, cell-based; settings: dose 2-10 µM, time 3.0 day
MDA-MB-231 [21] = test: Induction of cell cycle arrest in human MDA-MB-231 cells assessed as accumulation of cells at G2/M phase at 10 uM incubated for 3 days in presence of novobiocin by PI staining based flow cytometric analysis; format: functional; settings: time 3.0 day
MDA-MB-231 [22] = test: Induction of apoptosis in human MDA-MB-231 cells at 2 uM incubated for 3 days by Annexin V-APC/7-AAD based flow cytometry analysis; format: functional; settings: time 3 day
MDA-MB-231 [23] = test: Induction of apoptosis in human MDA-MB-231 cells at 2 to 10 uM incubated for 3 days in presence of novobiocin by Annexin V-APC/7-AAD based flow cytometry analysis; format: functional; settings: dose 2-10 µM, time 3 day
MDA-MB-231 [24] = test: Induction of DNA damage in human MDA-MB-231 cells assessed as increase in tail intensity at 2 uM incubated for 3 days by florescence microscopic analysis; format: functional, cell-based; settings: time 3.0 day
MDA-MB-231 [25] = test: Induction of DNA damage in human MDA-MB-231 cells assessed as increase in tail intensity at 2 to 10 uM incubated for 3 days in presence of novobiocin by florescence microscopic analysis; format: functional, cell-based; settings: dose 2-10 µM, time 3.0 day
MDA-MB-436 [26] = test: Inhibition of colony formation in human MDA-MB-436 cells at 2 to 10 uM incubated for 9 days in presence of novobiocin by crystal violet staining based analysis; format: functional, cell-based; settings: dose 2-10 µM, time 9.0 day
MDA-MB-231 [27] = test: Induction of DNA damage in human MDA-MB-231 cells assessed as increase in gammaH2AX foci at 2 to 10 uM incubated for 3 days in presence of novobiocin by DAPI staining based confocal laser scanning microscopic analysis; format: functional, cell-based; settings: dose 2-10 µM, time 3.0 day
MDA-MB-231 [28] = test: Induction of DNA damage in human MDA-MB-231 cells assessed as increase in gammaH2AX foci at 2 uM incubated for 3 days by DAPI staining based confocal laser scanning microscopic analysis; format: functional, cell-based; settings: time 3.0 day
MDA-MB-231 [29] = test: Induction of cell cycle arrest in human MDA-MB-231 cells assessed as accumulation of cells at G2/M phase at 2 uM incubated for 3 days by PI staining based flow cytometric analysis; format: functional; settings: time 3.0 day
MDA-MB-436 [30] = test: Inhibition of colony formation in human MDA-MB-436 cells at 2 uM incubated for 9 days by crystal violet staining based analysis; format: functional, cell-based; settings: time 9.0 day

T1 sequence (P09874 whole entry): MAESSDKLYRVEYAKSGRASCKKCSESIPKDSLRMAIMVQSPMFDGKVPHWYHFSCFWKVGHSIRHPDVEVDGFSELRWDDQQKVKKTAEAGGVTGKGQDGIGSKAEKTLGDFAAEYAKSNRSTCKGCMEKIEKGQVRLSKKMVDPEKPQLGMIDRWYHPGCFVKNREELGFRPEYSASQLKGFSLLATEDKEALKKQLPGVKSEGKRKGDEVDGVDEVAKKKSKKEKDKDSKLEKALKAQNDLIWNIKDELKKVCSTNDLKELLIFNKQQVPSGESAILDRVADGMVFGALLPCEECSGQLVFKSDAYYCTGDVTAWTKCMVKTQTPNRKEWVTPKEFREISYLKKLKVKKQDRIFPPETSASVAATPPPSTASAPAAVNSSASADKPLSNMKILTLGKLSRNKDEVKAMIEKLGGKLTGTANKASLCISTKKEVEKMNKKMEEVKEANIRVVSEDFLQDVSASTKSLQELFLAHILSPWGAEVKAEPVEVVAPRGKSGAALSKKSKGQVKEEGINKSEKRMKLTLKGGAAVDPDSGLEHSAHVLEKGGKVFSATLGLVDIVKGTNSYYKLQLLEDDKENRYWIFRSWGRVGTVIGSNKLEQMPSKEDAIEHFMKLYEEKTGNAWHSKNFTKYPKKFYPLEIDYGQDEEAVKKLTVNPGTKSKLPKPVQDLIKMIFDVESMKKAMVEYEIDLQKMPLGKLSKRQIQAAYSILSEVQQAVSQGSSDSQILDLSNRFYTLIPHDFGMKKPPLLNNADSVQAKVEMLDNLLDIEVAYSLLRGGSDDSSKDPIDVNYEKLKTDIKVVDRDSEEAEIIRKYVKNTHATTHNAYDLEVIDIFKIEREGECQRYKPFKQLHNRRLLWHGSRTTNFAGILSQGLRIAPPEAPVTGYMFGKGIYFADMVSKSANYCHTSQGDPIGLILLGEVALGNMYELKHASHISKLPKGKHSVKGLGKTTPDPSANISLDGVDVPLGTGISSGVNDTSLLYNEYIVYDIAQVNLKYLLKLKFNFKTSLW

Compound | inhibition [1] [%] | IC50 (DNA polymerase theta [2]) [µM] | IC50 (HCC1937) [µM] | IC50 (SK-OV-3) [µM] | IC50 (HCT-116) [µM] | IC50 (MDA-MB-436 [4]) [µM] | also measured
COc1ccc(F)cc1-c1cc(C)ncc1C(=O)Nc1nnc(OC2CC3(CCN(C(=O)c4cc(Cc5n[nH]c(=O)c6ccccc56)ccc4F)CC3)C2)s1 | 70.1 | 0.0719 | 57.8 | > 80 | 8.4 | 9.1 | IC50 (MCF-10A): Non-Toxic; IC50 [3]: 0.0047 µM
COc1ccc(Cl)cc1-c1cc(C)ncc1C(=O)Nc1nnc(OC2CC3(CCN(C(=O)c4cc(Cc5n[nH]c(=O)c6ccccc56)ccc4F)CC3)C2)s1 | 66.9 | 0.0598 | 89.4 | > 80 | 6.2 | 10.5 | IC50 (MCF-10A): Non-Toxic
CO[C@@H]1[C@@H](OC(N)=O)[C@@H](O)[C@H](Oc2ccc3c(O)c(NC(=O)c4ccc(O)c(CC=C(C)C)c4)c(=O)oc3c2C)OC1(C)C [NOVOBIOCIN] |  |  | > 80 | > 80 | > 80 | 24.3 | Activity (MDA-MB-231 [8]): 14.2%; inhibition in vivo at 40 mg/kg (MDA-MB-231 [9]): 62.5%; IC50 at 5 days [6]: > 80 µM; inhibition in vivo at 40 mg/kg (MDA-MB-231 [10]): 45%; Activity (MDA-MB-231 [11]): Active; Activity (MDA-MB-231 [12]): Active; inhibition (MDA-MB-436 [13]): Active; IC50 (SW48; read-out: IC50): > 80 µM; Activity (MDA-MB-231 [14]): Active; Activity (MDA-MB-231 [15]): Active; Activity (MDA-MB-231 [16]): Active; inhibition (MDA-MB-436 [17]): Active; Activity (MDA-MB-231 [18]): 6.4%; Activity (MDA-MB-231 [19]): Active; Activity (MDA-MB-231 [20]): Active
COc1ccccc1-c1cnccc1C(=O)Nc1nnc(OCc2cc(Cc3n[nH]c(=O)c4ccccc34)ccc2F)s1 | 30.3 |  |  |  |  |  | 
COc1ccccc1-c1cnccc1C(=O)Nc1nnc(OC2CC3(C2)CN(C(=O)c2cc(Cc4n[nH]c(=O)c5ccccc45)ccc2F)C3)s1 | 56.4 | 0.268 |  |  |  |  | 
COc1ccccc1-c1cnccc1C(=O)Nc1nnc(N2CCN(C(=O)c3cc(Cc4n[nH]c(=O)c5ccccc45)ccc3F)CC2)s1 | 91.4 | > 1 |  |  |  |  | 
COc1cccc(F)c1-c1cc(C)ncc1C(=O)Nc1nnc(OC2CC3(CCN(C(=O)c4cc(Cc5n[nH]c(=O)c6ccccc56)ccc4F)CC3)C2)s1 | 72.8 | 0.0793 | 65.6 | > 80 | 7.2 | 5.5 | IC50 (MCF-10A): Non-Toxic
O=C(Nc1nnc(OCc2ccc(Cl)cc2)s1)c1cc(Cc2n[nH]c(=O)c3ccccc23)ccc1F |  | > 1 |  |  |  |  | 
COc1cnc(C(F)F)cc1-c1cc(N2CCC(C)CC2=O)ncc1C(=O)Nc1nnc(C#CC2CC2)s1 (stereo not given) |  |  |  |  |  |  | IC50 (DNA polymerase theta [7]): < 0.2 µM
COc1ccccc1-c1cnccc1C(=O)Nc1nnc(OCC2CN(C(=O)c3cc(Cc4n[nH]c(=O)c5ccccc45)ccc3F)C2)s1 | 36.9 | > 1 |  |  |  |  | 
COc1ccccc1-c1cnccc1C(=O)Nc1ncc(N2CCN(C(=O)c3cc(Cc4n[nH]c(=O)c5ccccc45)ccc3F)CC2)s1 | 93.1 | > 1 |  |  |  |  | 

Continued, in another order:

inhibition [1] [%] | IC50 (DNA polymerase theta [2]) [µM] | IC50 (HCC1937) [µM] | IC50 (SK-OV-3) [µM] | IC50 (HCT-116) [µM] | IC50 (MDA-MB-436 [4]) [µM] | Compound | also measured
47 | 0.166 |  |  |  |  | COc1ccccc1-c1cnccc1C(=O)Nc1nnc(OC2CC3(CCN(C(=O)c4cc(Cc5n[nH]c(=O)c6ccccc56)ccc4F)CC3)C2)s1 | 
82.8 | > 1 |  |  |  |  | COc1ccccc1-c1cnccc1C(=O)Nc1nnc(N2CC3(CCN(C(=O)c4cc(Cc5n[nH]c(=O)c6ccccc56)ccc4F)CC3)C2)s1 | 
 | 0.0024 | 61.9 | 92.1 | 46.3 | 59.4 | COc1ccccc1-c1cnccc1C(=O)Nc1nnc(OCc2ccc(Cl)cc2)s1 | IC50 (DNA polymerase theta [5]): 0.0024 µM; IC50 at 5 days [6]: > 80 µM; IC50 (SW48; read-out: IC50): 13.4 µM; IC50 (DNA polymerase theta [7]): < 0.2 µM
 |  | 38.2 | 27.1 |  | 13.3 | O=C(c1cc(Cc2n[nH]c(=O)c3ccccc23)ccc1F)N1CCN(C(=O)C2CC2)CC1 [OLAPARIB] | Activity (MDA-MB-231 [21]): Active; IC50 at 5 days [6]: > 80 µM; IC50 (SW48): 4.6 µM; Activity (MDA-MB-231 [15]): inactive; Activity (MDA-MB-231 [22]): 8.9%; Activity (MDA-MB-231 [23]): 14.2%; Activity (MDA-MB-231 [24]): Active; Activity (MDA-MB-231 [25]): Active; inhibition (MDA-MB-436 [26]): Active; Activity (MDA-MB-231 [27]): Active; Activity (MDA-MB-231 [28]): Active; Activity (MDA-MB-231 [29]): Active; inhibition (MDA-MB-436 [30]): Active
91.6 | 0.117 | 18.1 | 32.6 | 17.6 | 5.6 | COc1ccccc1-c1cnccc1C(=O)Nc1nnc(OCC2CCN(C(=O)c3cc(Cc4n[nH]c(=O)c5ccccc45)ccc3F)CC2)s1 | IC50 (MCF-10A): Non-Toxic
87.9 | > 1 |  |  |  |  | COc1ccccc1-c1cnccc1C(=O)N1CCN(C(=O)c2cc(Cc3n[nH]c(=O)c4ccccc34)ccc2F)CC1 | 
